From patent US9649373B2, “Neoseptins: small molecule adjuvants” (THE SCRIPPS RESEARCH INSTITUTE, priority 2013, dated 2017)

Key:
[1] = molecular target: T1, TLR4 (Mus musculus, UniProt Q9JHF9+Q9QUK6); test: Mouse peritoneal macrophage agonist assay (TNF-α ELISA); type: cell-based; design: used to inject mice intraperitoneally; endogenous in cells; host or cells: mouse peritoneal exudate cells (thioglycolate-elicited peritoneal macrophages); details: for TLR4 agonist efficacy: relative to neoseptin-1 or LPS; for EC50: read-out: EC50 of dose-response curves, TLR4 agonist activity
T1 sequence (Q9QUK6 26-835): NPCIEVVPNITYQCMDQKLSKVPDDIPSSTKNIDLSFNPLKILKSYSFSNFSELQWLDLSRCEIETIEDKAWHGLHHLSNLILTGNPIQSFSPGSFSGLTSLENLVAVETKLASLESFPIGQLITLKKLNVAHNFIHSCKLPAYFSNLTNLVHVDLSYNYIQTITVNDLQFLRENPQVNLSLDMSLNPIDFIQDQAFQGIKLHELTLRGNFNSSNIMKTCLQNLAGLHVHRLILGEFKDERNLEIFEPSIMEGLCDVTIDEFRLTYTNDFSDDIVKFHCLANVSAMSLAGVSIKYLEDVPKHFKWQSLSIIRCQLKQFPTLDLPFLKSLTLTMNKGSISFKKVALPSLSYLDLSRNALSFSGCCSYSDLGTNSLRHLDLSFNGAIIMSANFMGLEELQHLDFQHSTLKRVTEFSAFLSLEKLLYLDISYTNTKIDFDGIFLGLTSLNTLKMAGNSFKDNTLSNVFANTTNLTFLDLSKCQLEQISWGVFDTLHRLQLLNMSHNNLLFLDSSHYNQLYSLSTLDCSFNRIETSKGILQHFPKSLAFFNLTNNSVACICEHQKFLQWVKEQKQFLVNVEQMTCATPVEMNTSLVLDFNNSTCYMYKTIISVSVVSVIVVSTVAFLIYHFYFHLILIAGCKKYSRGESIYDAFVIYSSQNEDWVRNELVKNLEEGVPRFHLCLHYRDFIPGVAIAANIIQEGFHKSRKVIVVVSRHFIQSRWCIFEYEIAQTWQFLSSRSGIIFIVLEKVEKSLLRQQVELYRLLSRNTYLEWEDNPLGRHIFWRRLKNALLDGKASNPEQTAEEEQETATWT
T1 sequence (Q9JHF9 19-160): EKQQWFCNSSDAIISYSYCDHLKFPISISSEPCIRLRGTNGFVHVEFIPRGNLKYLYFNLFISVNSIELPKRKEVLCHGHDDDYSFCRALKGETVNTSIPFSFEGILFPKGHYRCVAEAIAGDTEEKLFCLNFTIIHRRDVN
Protocol: Mouse Peritoneal Macrophage Agonist Assay
Three to four days prior to PEC isolation, 3 mL syringes filled with Brewer's thioglycolate medium are used to inject mice intraperitoneally with 1.5-2 mL through a 25-gauge needle.
Immediately prior to isolation, mice are anaesthetized under isofluorane vapour (2-5% v/v, 2% O2).
5 mL syringes filled with sterile PBS are used to recover PECs by lavage through an 18-gauge needle. Once obtained, exudate is added to 5 mL of PEC recovery solution in a 15 mL conical tube, and stored on ice.
Tubes containing exudate are centrifuged for 3 minutes at 1200 rpm in a tabletop centrifuge, and supernatant is replaced with 1-4 mL of PEC medium. Pelleted cells are resuspended by pipeting, and a 10 μL aliquot is taken for cell enumeration.
The concentration of each cell sample is adjusted to 1×10^6 cells/mL using PEC medium, and 100 μL of each sample (1×10^5 cells) is added to a tissue culture-treated 96 well flat-bottomed plate, leaving two columns (11 & 12) unoccupied per plate. Plates are incubated at 37° C./5% CO2 in a humidified incubator for at least 1 hour to permit cells to adhere to the plate, during which time 125-03 solutions are prepared.
Following preincubation of PECs in the 96-well plate, non-adherent PECs are discarded along with residual medium, and 50 μM of compounds to be assayed are added to the cells. Plates are incubated for a further 4 hours.
Conditioned supernatant is collected into another 96 well plate and retained for TNF ELISA Assay. The cells are replaced with 100 μL/well of a 1:4 MTT solution:PEC medium solution (MTT 1 mg/mL final concentration). PEC plates are incubated at 37° C./5% CO2 overnight (about 18 hours). Supernatants are removed and 100 μL DMSO is added to each well. The plate is shaken for 10 minutes and read at 570 nm. This value is used to measure the cytotoxicity of the compounds.
Coat ELISA plate with 100 μL/well of capture antibody in Coating Buffer. Seal the plate and incubate overnight (about 18 hours) at 4° C.
Aspirate wells and wash 4× with 300 μL/well Wash Buffer. Blot plate on absorbent paper to remove residual buffer.
Dilute 1 part 5× concentrated Assay Diluent with 4 parts DI water. Block wells with 200 μL/well of 1× Assay Diluent. Incubate at room temperature for 1 hour or 4° C. overnight (about 18 hours).
Aspirate and wash at twice with Wash Buffer.
Using 1× Assay Diluent to perform 2-fold serial dilutions of the top standards to make the standard curve for a total of 8 points: 1000, 500, 250, 125, 62.5, 31.25, 15.625, 0 pg/ml. Add 100 μL/well of top standard concentration to the appropriate wells. Add 65 μL/well assay diluent plus 35 μL samples to the wells. Seal the plate and incubate at room temperature for 2 hours [or overnight (about 18 hours) at 4° C.]
Aspirate/wash 4 times with wash buffer.
Add 100 μL/well of detection antibody diluted in 1× Assay diluent. Seal the plate and incubate at room temperature for 1 hour.
Aspirate/wash. Repeat for a total of 4 washes.
Add 100 μL/well of Avidin-HRP diluted in 1× Assay diluent. Seal the plate and incubate at room temperature for 30 minutes.
Aspirate and wash. Repeat for a total of 5 washes.
Add 100 μL/well of Substrate Solution to each well. Incubate plate at room temperature for 2-3 minutes.
Add 50 μL/well of Stop Solution, and read plate at 450 nm.

[2] = molecular target: T2, MD-2 (UniProt Q9JHF9); test: Isothermal titration calorimetry binding to MD-2
T2 sequence (Q9JHF9 1-160): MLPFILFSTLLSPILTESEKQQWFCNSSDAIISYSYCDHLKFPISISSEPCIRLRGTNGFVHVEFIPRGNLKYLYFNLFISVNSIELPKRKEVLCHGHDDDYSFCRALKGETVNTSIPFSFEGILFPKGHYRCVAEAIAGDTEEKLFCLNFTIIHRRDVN

[3] = test system: NF-κB, P38 MAPK, JNK, and Erk signaling pathways; test: Activation of signaling pathways; type: cell-based
Excerpt: (§1) See, (a) mutagenetix.utsouthwestern.edu.; (b) Arnold et al., (2012) ENU-induced phenovariance in mice: Inferences from 587 mutations. BMC Res. Notes. 5, 577-0500-5-577.

[4] = test system: type I interferon response; test: Type I interferon response, release of INF-β / INF-α (FIG. 2); type: cell-based
[5] = test system: C57BL/6J mice; test: In vivo adjuvant effect, intramuscular co-injection with ovalbumin, serum OVA-specific IgG ELISA; design: species or system mouse
Protocol: FIG. 3, in two panels as FIG. 3A and FIG. 3B, are graphs that illustrate ELIZA results for the adjuvant effect of neoseptin-3. In FIG. 3A, adjuvants were mixed with ovalbumin (OVA, 100 μg) and injected intramuscularly into C57BL/6J mice at the indicated doses. Two immunizations were administered with a booster given at 7 days. In FIG. 3B, LPS (0.2 mg/kg), neoseptin-3 (250 mg/kg) or monophosphoryl lipid A from Salmonella minnesota R595 (MPLA) (0.2 mg/kg) were mixed with ovalbumin (OVA, 0, 1, 10, and 100 μg) Serum levels of OVA-specific IgG were measured (ELISA) on indicated days post-immunization.
FIG. 9 is a graph similar to FIG. 3 showing anti-olvalbumin titers at 14 days post immunization using adjuvants with ovalbumin (OVA, 100 μg) and injected intramuscularly into C57BL/6J mice. The adjuvants used were neoseptin-3, LPS, MPLA, and alum in the amounts shown.
It is remarkable that such a small molecule can display such exquisite structural selectivity for activating the immune response and to do so in a way that is so mechanistically specific and well-defined. {See, (a) Vogel Clin. Infect. Dis. 30 (Suppl 3):S266-S270 (2000); (b) Guy, Nat. Rev. Microbiol. 5:505-517 (2007); (c) Johnson, Curr. Top. Med. Chem. 8:64-79 (2008); and (d) Persing et al., Trends Microbiol. 10:S32-S37 (2002) and the citations therein for the procedures utilized.] […]

[6] = Overt toxicity on in vivo administration as adjuvant; details: at the maximum doses capable of administration
Excerpt: Thus, a contemplated Compound of Formula I acts as an agonist at the TLR4 receptor in that it binds to the TLR4 receptor of a cell and triggers a response by that cell, thereby mimicking the action of LPS, without the toxic result from using LPS as an adjuvant.
It is remarkable that such a small molecule can display such exquisite structural selectivity for activating the immune response and to do so in a way that is so mechanistically specific and well-defined. {See, (a) Vogel Clin. Infect. Dis. 30 (Suppl 3):S266-S270 (2000); (b) Guy, Nat. Rev. Microbiol. 5:505-517 (2007); (c) Johnson, Curr. Top. Med. Chem. 8:64-79 (2008); and (d) Persing et al., Trends Microbiol. 10:S32-S37 (2002) and the citations therein for the procedures utilized.]

[7] = molecular target: T1, TLR4; test: TNF-α production in macrophages from mice with disabling germline mutations or knockouts of TLRs and downstream signaling proteins; type: cell-based; design: normalized TNF-α production in macrophages from mice; endogenous in cells; host or cells: macrophages from wild-type and mutant/knockout mice; details: for Genes on which induced TNF-α production depends / mechanism of signaling: mutant or knockout mouse macrophages, 5 ng/ml LPS or 50 mM neoseptin-3 (FIG. 1)
Protocol: FIG. 1 in two parts as FIG. 1A and FIG. 1B are bar graphs that illustrate an assay of normalized TNF-α production in macrophages from mice containing disabling germline mutations or knockouts of genes encoding TLRs and downstream signaling proteins using 5 ng/ml of LPS or […] neoseptin-3.
as §1

N[C@@H](Cc1ccccc1)C(=O)Nc1ccc(C(=O)N[C@@H](CCc2ccccc2)C(=O)O)cc1CCc1ccc(O)cc1 [MM-1-88]
TLR4 agonist efficacy [1]: significant enhancement in TLR4 agonist efficacy

CC(C)(C)OC(=O)[C@H](CCc1ccccc1)NC(=O)c1ccc(N)c(CCc2ccc(O)cc2)c1 [neoseptin-3]
EC50 [1]: 15 to 25 µM | TLR4 agonist efficacy [1]: nearly matching the efficacy of LPS | Effect of antagonist eritoran on TLR4 agonist activity ([1]; with eritoran): blocked by the antagonist eritoran | Affinity for MD-2 relative to MPLA ([2]; ITC direct binding): slightly better than that of MPLA itself | Kd ([2]; ITC, 20 μM neoseptin-3 with 350 μM MD-2): 11.7 µM | Activation of signaling pathways [3]: activate the NF-κB, P38 MAPK, JNK, and Erk signaling pathways | Release of INF-β (type I interferon response) compared with LPS [4]: much more effectively stimulates a type I interferon response resulting in the release of INF-β | In vivo adjuvant immune response compared with LPS ([5]; co-injected with ovalbumin, intramuscular (FIG. 3)): more sustained immune response of equal or greater efficacy than LPS | In vivo adjuvant immune response compared with alum ([5]; ovalbumin 100 μg i.m., 14 days post immunization (FIG. 9)): much more robust immune response in vivo than does alum | Overt toxicity [6]: does not display the overt toxicity | Genes on which induced TNF-α production depends / mechanism of signaling [7]: dependent on TLR4, MD-2, MyD88, Trif, TRAM, MAL, IRAK4, and IKBKG | CD14 dependence of induced TNF-α production ([7]; unlike LPS): independent of CD14

N[C@@H](Cc1ccccc1)C(=O)Nc1ccc(C(=O)N[C@@H](CCc2ccccc2)C(=O)O)cc1OCCc1ccc(O)cc1 [neoseptin-1]
Genes on which induced TNF-α production depends / mechanism of signaling [7]: established to be TLR4

CC(C)(C)OC(=O)[C@H](CCc1ccccc1)NC(=O)c1ccc(N)c(OCCc2ccc(O)cc2)c1 [neoseptin-4]
EC50 [1]: 15 to 25 µM | TLR4 agonist efficacy [1]: nearly matching the efficacy of LPS
